The subject of this assay is BDF1 mice, L1210 leukemia sc, survival T/C. Put plainly: NCI In Vivo Anticancer Drug Screen. Data for tumor model L1210 Leukemia (subcutaneous) in B6D2F1 (BDF1) mice. As to conditions: endpoint: median survival time, higher = longer survival. The method, boiled down: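 Expressed as T/C: measurement in compound-treated, tumor-bearing mice relative to vehicle-treated control mice, based on survival or tumor size.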

Several values for one entry are separate records, joined by “and”; a condition that tells them apart may be missing. Equal entries are not always repeated. Inconclusive results and toxic doses are left out.

Regarding `O=C1CN=C(c2ccc[nH]2)c2cc(Cl)ccc2N1`, the T/C runs as follows: (dose: 2.5 mg/kg/injection, schedule: Q01DX009 (ip), vehicle: clinical formulation) 100 % of control; (dose: 2.5 mg/kg/injection, schedule: Q01DX009 (sc), vehicle: clinical formulation) 88 % of control; (dose: 5.0 mg/kg/injection, schedule: Q01DX009 (ip), vehicle: clinical formulation) 100 % of control; (dose: 5.0 mg/kg/injection, schedule: Q01DX009 (sc), vehicle: clinical formulation) 88 % of control; (dose: 10.0 mg/kg/injection, schedule: Q01DX009 (ip), vehicle: clinical formulation) 88 % of control; (dose: 10.0 mg/kg/injection, schedule: Q01DX009 (sc), vehicle: clinical formulation) 88 % of control. The T/C is 100 % of control (dose: 12.5 mg/kg/injection, schedule: Q01DX009 (ip), vehicle: Klucel (hydroxypropylcellulose) (HPC)); 94 % of control (dose: 12.5 mg/kg/injection, schedule: Q01DX009 (sc), vehicle: Klucel (hydroxypropylcellulose) (HPC)); 100 % of control (dose: 20.0 mg/kg/injection, schedule: Q01DX009 (ip), vehicle: clinical formulation); 88 % of control (dose: 20.0 mg/kg/injection, schedule: Q01DX009 (sc), vehicle: clinical formulation); 88 % of control (dose: 25.0 mg/kg/injection, schedule: Q01DX009 (ip), vehicle: Klucel (hydroxypropylcellulose) (HPC)); 100 % of control (dose: 25.0 mg/kg/injection, schedule: Q01DX009 (sc), vehicle: Klucel (hydroxypropylcellulose) (HPC)). Also, the T/C runs as follows: (dose: 40.0 mg/kg/injection, schedule: Q01DX009 (ip), vehicle: clinical formulation) 100 % of control; (dose: 40.0 mg/kg/injection, schedule: Q01DX009 (sc), vehicle: clinical formulation) 88 % of control; (dose: 50.0 mg/kg/injection, schedule: Q01DX009 (ip), vehicle: Klucel (hydroxypropylcellulose) (HPC)) 100 % of control; (dose: 50.0 mg/kg/injection, schedule: Q01DX009 (ip), vehicle: steriod suspending solution) 111 % of control; (dose: 50.0 mg/kg/injection, schedule: Q01DX009 (sc), vehicle: Klucel (hydroxypropylcellulose) (HPC)) 100 % of control; (dose: 50.0 mg/kg/injection, schedule: Q01DX009 (sc), vehicle: steriod suspending solution) 100 % of control. Further, the T/C is 88 % of control (dose: 80.0 mg/kg/injection, schedule: Q01DX009 (ip), vehicle: clinical formulation); 100 % of control (dose: 80.0 mg/kg/injection, schedule: Q01DX009 (ip), vehicle: other); 100 % of control (dose: 80.0 mg/kg/injection, schedule: Q01DX009 (sc), vehicle: clinical formulation); 155 % of control (dose: 100.0 mg/kg/injection, schedule: Q01DX009 (ip), vehicle: Klucel (hydroxypropylcellulose) (HPC)); 111 % of control (dose: 100.0 mg/kg/injection, schedule: Q01DX009 (ip), vehicle: steriod suspending solution); 111 % of control (dose: 100.0 mg/kg/injection, schedule: Q01DX009 (sc), vehicle: Klucel (hydroxypropylcellulose) (HPC)). In addition, the T/C is 100 % of control (dose: 100.0 mg/kg/injection, schedule: Q01DX009 (sc), vehicle: steriod suspending solution); 100 % of control and 101 % of control (dose: 100.0 mg/kg/injection, schedule: Q08DX009 (sc), vehicle: Klucel (hydroxypropylcellulose) (HPC)); 111 % of control (dose: 200.0 mg/kg/injection, schedule: Q01DX009 (ip), vehicle: steriod suspending solution); 172 % of control (dose: 200.0 mg/kg/injection, schedule: Q01DX009 (sc), vehicle: Klucel (hydroxypropylcellulose) (HPC)); 105 % of control (dose: 200.0 mg/kg/injection, schedule: Q01DX009 (sc), vehicle: steriod suspending solution); 105 % of control (dose: 200.0 mg/kg/injection, schedule: Q08DX009 (sc), vehicle: Klucel (hydroxypropylcellulose) (HPC)). For the same molecule, the T/C (dose: 400.0 mg/kg/injection, schedule: Q01DX009 (ip), vehicle: steriod suspending solution) was 150 % of control; the T/C (dose: 400.0 mg/kg/injection, schedule: Q01DX009 (sc), vehicle: Klucel (hydroxypropylcellulose) (HPC)) is 183 % of control; the T/C (dose: 400.0 mg/kg/injection, schedule: Q01DX009 (sc), vehicle: steriod suspending solution) was 166 % of control; the T/C (dose: 400.0 mg/kg/injection, schedule: Q08DX009 (sc), vehicle: Klucel (hydroxypropylcellulose) (HPC)) is 98 % of control and 100 % of control; the T/C (dose: 800.0 mg/kg/injection, schedule: Q01DX009 (sc), vehicle: steriod suspending solution) was 166 % of control; the T/C (dose: 2313.0 mg/kg/injection, schedule: Q01DX009 (sc), vehicle: Klucel (hydroxypropylcellulose) (HPC)) is 88 % of control and 93 % of control. In addition, the T/C (dose: 3855.0 mg/kg/injection, schedule: Q01DX009 (sc), vehicle: Klucel (hydroxypropylcellulose) (HPC)) is 87 % of control.
On to `CN(C)c1ccc(/C=C2\C=Cc3ccccc32)cc1`, for which the T/C is 100 % of control (dose: 180.0 mg/kg/injection, schedule: Q01DX Z (sc), vehicle: carboxymethylcellulose (CMC)); 100 % of control (dose: 300.0 mg/kg/injection, schedule: Q01DX Z (sc), vehicle: carboxymethylcellulose (CMC)); 105 % of control (dose: 500.0 mg/kg/injection, schedule: Q01DX Z (sc), vehicle: carboxymethylcellulose (CMC)); 111 % of control (dose: 833.0 mg/kg/injection, schedule: Q01DX Z (sc), vehicle: carboxymethylcellulose (CMC)).

Source of the values: PubChem BioAssay AID250 (DTP/NCI, 2004).
